Measurements reported in ChEMBL document CHEMBL4190322, “Structure-based development of novel triazoles and related thiazolotriazoles as anticancer agents and Cdc25A/B phosphatase inhibitors. Synthesis, in vitro biological evaluation, molecular docking and in silico ADME-T studies” (Eur J Med Chem, 2017).
The source made the active and inactive calls. No cut-off for these calls is given here.

Assays:
Type in all cases: functional
KM12 = test: Growth inhibition of human KM12 cells at 10 uM after 48 hrs by SRB assay relative to control
UO-31 = test: Growth inhibition of human UO31 cells at 10 uM after 48 hrs by SRB assay relative to control; settings: UO-31, 48 h, read-out: GI
SR = test: Growth inhibition of human SR cells at 10 uM after 48 hrs by SRB assay relative to control; settings: read-out: GI
HOP-92 = test: Growth inhibition of human HOP92 cells at 10 uM after 48 hrs by SRB assay relative to control; settings: HOP-92, 48 h, read-out: GI
HOP-62 = test: Growth inhibition of human HOP62 cells at 10 uM after 48 hrs by SRB assay relative to control; settings: HOP-62, 48 h, read-out: GI
HL-60 = test: Growth inhibition of human HL60 cells at 10 uM after 48 hrs by SRB assay relative to control
LOX IMVI = test: Growth inhibition of human LOXIMVI cells at 10 uM after 48 hrs by SRB assay relative to control; settings: read-out: GI
RXF 393 = test: Growth inhibition of human RXF393 cells at 10 uM after 48 hrs by SRB assay relative to control
K562 = test: Growth inhibition of human K562 cells at 10 uM after 48 hrs by SRB assay relative to control; settings: K562, 48 h, read-out: GI
HT-29 = test: Growth inhibition of human HT-29 cells at 10 uM after 48 hrs by SRB assay relative to control
CCRF-CEM = test: Growth inhibition of human CCRF-CEM cells at 10 uM after 48 hrs by SRB assay relative to control; settings: read-out: GI
MOLT-4 = test: Growth inhibition of human MOLT4 cells at 10 uM after 48 hrs by SRB assay relative to control; settings: MOLT-4, 48 h, read-out: GI
NCI-H322M = test: Growth inhibition of human NCI-H322M cells at 10 uM after 48 hrs by SRB assay relative to control
OVCAR-3 = test: Growth inhibition of human OVCAR3 cells at 10 uM after 48 hrs by SRB assay relative to control
SF-268 = test: Growth inhibition of human SF268 cells at 10 uM after 48 hrs by SRB assay relative to control
NCI/ADR-RES = test: Growth inhibition of human NCI/ADR-RES cells at 10 uM after 48 hrs by SRB assay relative to control; settings: read-out: GI
NCI-H522 = test: Growth inhibition of human NCI-H522 cells at 10 uM after 48 hrs by SRB assay relative to control; settings: NCI-H522, 48 h, read-out: GI
A498 = test: Growth inhibition of human A498 cells at 10 uM after 48 hrs by SRB assay relative to control
MCF7 = test: Growth inhibition of human MCF7 cells at 10 uM after 48 hrs by SRB assay relative to control
MDA-MB-468 = test: Growth inhibition of human MDA-MB-468 cells at 10 uM after 48 hrs by SRB assay relative to control
Hs-578T = test: Growth inhibition of human Hs 578T cells at 10 uM after 48 hrs by SRB assay relative to control; settings: read-out: GI
SK-MEL-2 = test: Growth inhibition of human SK-MEL-2 cells at 10 uM after 48 hrs by SRB assay relative to control; settings: SK-MEL-2, 48 h, read-out: GI
SK-OV-3 = test: Growth inhibition of human SKOV3 cells at 10 uM after 48 hrs by SRB assay relative to control; settings: SK-OV-3, 48 h, read-out: GI
RPMI-8226 = test: Growth inhibition of human RPMI8226 cells at 10 uM after 48 hrs by SRB assay relative to control
NCI-H23 = test: Growth inhibition of human NCI-H23 cells at 10 uM after 48 hrs by SRB assay relative to control; settings: NCI-H23, 48 h, read-out: GI
PC-3 = test: Growth inhibition of human PC3 cells at 10 uM after 48 hrs by SRB assay relative to control; settings: PC-3, 48 h, read-out: GI
U-251 = test: Growth inhibition of human U251 cells at 10 uM after 48 hrs by SRB assay relative to control; settings: U-251, 48 h, read-out: GI
HCT-116 = test: Growth inhibition of human HCT116 cells at 10 uM after 48 hrs by SRB assay relative to control
NCI-H226 = test: Growth inhibition of human NCI-H226 cells at 10 uM after 48 hrs by SRB assay relative to control
SNB-19 = test: Growth inhibition of human SNB19 cells at 10 uM after 48 hrs by SRB assay relative to control
A549 = test: Growth inhibition of human A549 cells at 10 uM after 48 hrs by SRB assay relative to control
SK-MEL-5 = test: Growth inhibition of human SK-MEL-5 cells at 10 uM after 48 hrs by SRB assay relative to control; settings: SK-MEL-5, 48 h, read-out: GI
UACC-257 = test: Growth inhibition of human UACC257 cells at 10 uM after 48 hrs by SRB assay relative to control
CAKI-1 = test: Growth inhibition of human Caki1 cells at 10 uM after 48 hrs by SRB assay relative to control
786-0 = test: Growth inhibition of human 786-0 cells at 10 uM after 48 hrs by SRB assay relative to control
Malme-3M = test: Growth inhibition of human MALME-3M cells at 10 uM after 48 hrs by SRB assay relative to control; settings: read-out: GI
SNB-75 = test: Growth inhibition of human SNB75 cells at 10 uM after 48 hrs by SRB assay relative to control
UACC-62 = test: Growth inhibition of human UACC62 cells at 10 uM after 48 hrs by SRB assay relative to control; settings: UACC-62, 48 h, read-out: GI
OVCAR-4 = test: Growth inhibition of human OVCAR4 cells at 10 uM after 48 hrs by SRB assay relative to control
OVCAR-8 = test: Growth inhibition of human OVCAR8 cells at 10 uM after 48 hrs by SRB assay relative to control

## COc1ccc(Cc2nnc(SCC(=O)Nc3ccc(C)cc3)n2-c2ccccc2)cc1
KM12
  growth inhibition (GI): inactive
UO-31
  inhibition of growth at 10 µM: 11.4%
SR
  inhibition of growth at 10 µM: 17%
HOP-92
  inhibition of growth at 10 µM: 8.7%
HOP-62
  inhibition of growth at 10 µM: 6.8%
HL-60
  growth inhibition (GI): inactive
LOX IMVI
  inhibition of growth at 10 µM: 2.2%
RXF 393
  growth inhibition (GI): inactive
K562
  inhibition of growth at 10 µM: 9.31%
HT-29
  growth inhibition (GI): inactive
CCRF-CEM
  inhibition of growth at 10 µM: 8.16%
MOLT-4
  inhibition of growth at 10 µM: 14.9%
NCI-H322M
  growth inhibition (GI): inactive
OVCAR-3
  growth inhibition (GI): inactive
SF-268
  growth inhibition (GI): inactive
NCI/ADR-RES
  inhibition of growth at 10 µM: 6.11%
NCI-H522
  inhibition of growth at 10 µM: 19%
A498
  growth inhibition (GI): inactive
MCF7
  growth inhibition (GI): inactive
MDA-MB-468
  growth inhibition (GI): inactive
Hs-578T
  inhibition of growth at 10 µM: 1.15%
SK-MEL-2
  inhibition of growth at 10 µM: 17.3%
SK-OV-3
  inhibition of growth at 10 µM: 7.38%
RPMI-8226
  growth inhibition (GI): inactive
NCI-H23
  inhibition of growth at 10 µM: 5.6%
PC-3
  inhibition of growth at 10 µM: 16.3%
U-251
  inhibition of growth at 10 µM: 1.62%
HCT-116
  growth inhibition (GI): inactive
NCI-H226
  growth inhibition (GI): inactive
SNB-19
  growth inhibition (GI): inactive
A549
  growth inhibition (GI): inactive
SK-MEL-5
  inhibition of growth at 10 µM: 1.4%
UACC-257
  growth inhibition (GI): inactive
CAKI-1
  growth inhibition (GI): inactive
786-0
  growth inhibition (GI): inactive
Malme-3M
  inhibition of growth at 10 µM: 1.56%
SNB-75
  growth inhibition (GI): inactive
UACC-62
  inhibition of growth at 10 µM: 2.9%
OVCAR-4
  growth inhibition (GI): inactive
OVCAR-8
  growth inhibition (GI): inactive
